BindingDB's records for doi:10.7270/Q21R6P59 (German University In Cairo, 2011)

Target: cGMP-specific 3',5'-cyclic phosphodiesterase (Homo sapiens, UniProt O76074)
Experiment: Phosphodiesterase Inhibition Assay
Method: PDE activity was measured using a modification of the IMAP fluorescence polarization phosphodiesterase assay from Molecular Devices. The assay was modified to use tetramethylrhodamine (TAMRA-) cGMP as substrate. PDE hydrolysis of the fluorescent labeled substrate allows it to bind the IMAP binding reagent, which results in increased FP.

IC50 [nM] | Structure (SMILES)
6400 | COC(=O)[C@@H]1Cc2c([nH]c3ccccc23)[C@H](c2ccc(OC)cc2OC)N1 [PDE5 Inhibitor, 4]
720 | CCn1c(O)c2n(c1=O)[C@@H](c1ccc(OC)cc1OC)c1[nH]c3ccccc3c1C2 [PDE5 Inhibitor, 6]
360 | CCn1c(O)c2n(c1=O)[C@H](c1ccc(OC)cc1OC)c1[nH]c3ccccc3c1C2 [PDE5 Inhibitor, 8]
2400 | COc1ccc([C@H]2c3[nH]c4ccccc4c3Cc3c(O)n(C(C)(C)C)c(=O)n32)c(OC)c1 [PDE5 Inhibitor, 9]
550 | COc1ccc([C@@H]2c3[nH]c4ccccc4c3Cc3c(O)n(C(C)(C)C)c(=O)n32)c(OC)c1 [PDE5 Inhibitor, 12]
560 | C=CCn1c(O)c2n(c1=S)[C@H](c1ccc(OC)cc1OC)c1[nH]c3ccccc3c1C2 [PDE5 Inhibitor, 19]
